# Results reported in US20230002377A1, “THERAPEUTIC COMBINATIONS OF DRUGS AND METHODS OF USING THEM” (HARMONY BIOSCIENCES, LLC, priority 2020, published 2023).
# Where “and” joins values, the source holds several entries; their conditions need not be identical. Equal entries are not always repeated. Where two headings read alike, the source gives them in different places.
# Legend:
# [1] = target: T1, serotonin transporters (SERT) (Homo sapiens, UniProt P31645); experiment: PET study of SERT occupancy with 11C-MADAM in healthy male volunteers; type: in vivo; conditions: read-out: SERT RO %; for receptor occupancy at 10 mg: 10 mg once a day; for receptor occupancy at 30 mg: 30 mg once a day; for receptor occupancy at 45 mg: 45 mg once a day (30 mg for 3 days first); for receptor occupancy at 60 mg: 60 mg once a day (30 mg for 3 days first)
# T1 construct: evaluate in healthy male volunteers with respect to safety, tolerability and pharmacokinetics as well as DAT and SERT occupancy; from tissue; host or cells: living human brain (striatum, thalamus), PET in healthy male volunteers
# Description: The PET study was a part of a strategy in previous clinical development of the compound of formula I to evaluate in healthy male volunteers with respect to safety, tolerability and pharmacokinetics as well as DAT and SERT occupancy.
# The relationship between plasma the compound of formula I concentration and SERT occupancies, using the individual values, is presented in FIG. 8 and FIG. 9. The numeric values for the individual SERT and […] occupancy and the corresponding plasma concentrations are tabulated in Example 12.
# (§1) Striatal receptor occupancy at dopamine transporters (DAT) and serotonin transporters (SERT) with plasma concentrations of Formula I at the midpoint time of the post dosing PET (positron emission tomography) scans (T=4 and 24) after once-a-day multiple doses of 3-60 mg and 10-60 mg for SERT and DAT healthy male cohorts, respectively (Tables below, RO stands for receptor occupancy). Post dosing PET scans were conducted at day 10 (4 h post last dose) and day 14 (24 h post last dose) assuming steady state conditions, using the specific DAT and SERT tracers ^11C-PE2I and ^11C-MADAM, respectively. For 45 mg and 60 mg cohorts, there was titration by administration of 30 mg for 3 days and then from day 4 the specified dose. Representative reports on using these two tracers are Leamed-Coughlin S M et al, Biol Psychiatry. 2003, 54(8):800-5; Jucaite A et al, Eur J Nucl Med Mol Imaging. 2006, 33(6):657-68; and Lundberg J et al, Int J Neuropsychopharmacol. 2007, 10(6):777-85.
# [2] = target: T2, dopamine transporters (DAT) (Homo sapiens, UniProt Q01959); experiment: PET study of striatal DAT occupancy with 11C-PE2I in healthy male volunteers; type: in vivo
# T2 construct: evaluate in healthy male volunteers with respect to safety, tolerability and pharmacokinetics as well as DAT and SERT occupancy; from tissue; host or cells: living human brain (striatum), PET in healthy male volunteers
# Description: The PET study was a part of a strategy in previous clinical development of the compound of formula I to evaluate in healthy male volunteers with respect to safety, tolerability and pharmacokinetics as well as DAT and SERT occupancy. […]
# as §1
# [3] = Plasma concentration of Formula I at midpoint time of post dosing PET scans; type: in vivo; conditions: male, human; for concentration at 24 h: day 14, 24 h post last dose
# Description: In alternative embodiments, provided are methods comprising administering a drug in an amount sufficient to achieve a therapeutic level range of plasma concentration (optionally human plasma concentration) at a steady state, and this example describes an exemplary analytical method to determine the concentration of Formula I in human plasma using an LC-MS-MS method known to the people skilled in the art, and an exemplary bioanalysis method to determine the concentration of formula I in human EDTA plasma.
# (§2) A LC-MS/MS method was developed and validated for the quantitation of Formula I in 0.250 mL of human EDTA plasma in a total of 7 runs, out of which 1 run was rejected. The method utilized stable labeled Formula I as an internal standard. After the addition of the internal standard (equivalent to 285.4 ng/mL in human EDTA plasma) and 0.250 mL of each quality control (QC) sample and calibration standard, 0.525 mL of methyl t-butyl ether (MTBE) was added to the 96-well sample tubes. The organic layer was removed and evaporated to dryness using a liquid-liquid extraction (LLE). The residue was reconstituted and injected into the LC-MS/MS system. Chromatographic separation was achieved through gradient elution on an Acquity UPLC, BEH Shield RP18™, 50×2.1 mm, 1.7 μm particle size column. The mobile phase contained water, acetonitrile, ammonium formate, and formic acid. Detection was accomplished using a Sciex API 4000 tandem mass spectrometer in positive ion electrospray SRM mode. The standard curves, which ranged from 1.00 to 1000 ng/mL for Formula I, were fitted to a 1/×2 weighted linear regression model. The intra-assay precisions, based on four levels of analytical QCs (low, mid, GM, and high), were within 4.2% CV and inter-assay precisions were within 7.2% CV for the analyte. The assay accuracy, expressed as % DEV, was within 6.4% of the nominal concentration values for the analyte. […] The LLOQ response ratio, when compared to the QCO response ratio, was >, 5 in all matrix lots. The analyte was stable in human EDTA plasma for at least 24 h at room temperature, for at least 14 days at −20° C., and following at least 3 freeze-thaw cycles. The processed samples were stable for 72 hours (h) at room temperature.
# as §1
# [4] = 14-day once-a-day oral multiple ascending dose PK study, day-14 data; type: in vivo, human; conditions: for Cmax: read-out: Formula I plasma concentration (Cmax); for concentration at 0 h: day 14, blood draw at 0 h (pre-dose trough)
# Protocol: as §2
# Tabulated, day-14 PK data (Cmax, Ctrough and AUC) for healthy humans in a 14-day, once-a-day oral dosing, multiple ascending dose study of compound of Formula I.
# [5] = Stability of Formula I in human EDTA plasma (LC-MS/MS validation); type: in vitro ADME
# Protocol: as §2
# [6] = target: Transporter, Dopamine (DAT) (Homo sapiens, UniProt Q01959); experiment: DAT radioligand binding ([125I] RTI-55), Eurofins; conditions: read-out: DAT, % inhibition, 10 nM compound
# Protocol: Source: Human recombinant CHO—S cells;
# Incubation Time/Temp: 3 hours @ 4° C.;
# Incubation Buffer: 50 mM Tris-HCl, pH 7.4, 100 mM NaCl, 1 μM Leupeptin, 10 μM PMSF;
# Non-Specific Ligand: 10.0 μM Nomifensine;
# Specific Binding: 90% (Historical Values);
# Quantitation Method: Radioligand Binding;
# [7] = 24 h, day 14, 24 h post last dose
# T2 sequence (Q01959 whole entry): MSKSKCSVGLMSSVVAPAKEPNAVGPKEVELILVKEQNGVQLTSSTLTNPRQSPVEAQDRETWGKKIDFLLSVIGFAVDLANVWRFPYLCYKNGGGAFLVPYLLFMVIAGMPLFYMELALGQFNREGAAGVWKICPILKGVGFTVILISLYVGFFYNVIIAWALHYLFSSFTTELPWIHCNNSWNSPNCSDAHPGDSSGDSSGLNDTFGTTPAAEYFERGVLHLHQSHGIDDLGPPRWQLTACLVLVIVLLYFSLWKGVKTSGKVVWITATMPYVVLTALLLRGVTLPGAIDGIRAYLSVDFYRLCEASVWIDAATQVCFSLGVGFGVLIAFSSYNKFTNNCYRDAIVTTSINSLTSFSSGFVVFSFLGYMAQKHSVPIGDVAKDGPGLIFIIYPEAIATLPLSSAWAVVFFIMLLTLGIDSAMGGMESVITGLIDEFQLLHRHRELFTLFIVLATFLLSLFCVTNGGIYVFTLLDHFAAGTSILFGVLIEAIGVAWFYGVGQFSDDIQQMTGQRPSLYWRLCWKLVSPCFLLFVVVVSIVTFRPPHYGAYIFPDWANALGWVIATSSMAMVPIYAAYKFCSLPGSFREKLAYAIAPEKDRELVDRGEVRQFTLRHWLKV
# T1 sequence (P31645 whole entry): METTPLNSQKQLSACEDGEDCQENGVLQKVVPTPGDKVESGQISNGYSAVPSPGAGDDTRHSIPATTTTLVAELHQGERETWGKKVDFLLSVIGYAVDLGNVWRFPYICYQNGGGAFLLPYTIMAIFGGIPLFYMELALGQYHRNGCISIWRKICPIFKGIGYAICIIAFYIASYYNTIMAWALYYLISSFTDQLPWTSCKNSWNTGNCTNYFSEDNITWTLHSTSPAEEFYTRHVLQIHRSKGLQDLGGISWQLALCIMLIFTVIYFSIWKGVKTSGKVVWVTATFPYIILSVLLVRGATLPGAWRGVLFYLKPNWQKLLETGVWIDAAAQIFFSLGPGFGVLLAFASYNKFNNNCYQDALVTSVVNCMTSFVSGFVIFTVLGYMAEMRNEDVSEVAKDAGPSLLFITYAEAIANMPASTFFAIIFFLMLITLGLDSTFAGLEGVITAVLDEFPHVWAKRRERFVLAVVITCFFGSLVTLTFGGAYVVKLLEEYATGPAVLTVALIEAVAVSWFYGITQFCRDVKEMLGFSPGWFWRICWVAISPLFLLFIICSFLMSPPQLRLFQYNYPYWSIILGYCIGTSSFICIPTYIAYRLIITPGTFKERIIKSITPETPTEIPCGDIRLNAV
# Chain of Transporter, Dopamine (DAT) (Q01959 whole entry): as the sequence (Q01959 whole entry) above
compound,measurement,setting,value
"Clc1ccc(C2CNCc3cc(-c4ccc5ncnn5c4)ccc32)cc1Cl (stereo not shown) [Formula I, 7-([1,2,4]triazolo[1,5-a]pyridin-6-yl)-4-(3,4-dichlorophenyl)-1,2,3,4-tetrahydroisoquinoline]",receptor occupancy at 10 mg,"[1]; 4 h, day 10, 4 h post dose",53%
same,receptor occupancy at 30 mg,"[1]; 4 h, day 10, 4 h post dose",71%
same,receptor occupancy at 45 mg,"[1]; 4 h, day 10, 4 h post dose",73%
same,receptor occupancy at 60 mg,"[1]; 4 h, day 10, 4 h post dose",70%
same,receptor occupancy at 10 mg,[1]; [7],47%
same,receptor occupancy at 30 mg,[1]; [7],69%
same,receptor occupancy at 45 mg,[1]; [7],73%
same,receptor occupancy at 60 mg,[1]; [7],76%
same,DAT RO %,"[2]; 10 mg once a day, day 10, 4 h post dose",12% and 21% and 18%
same,DAT RO %,"[2]; 30 mg once a day, day 10, 4 h post dose",22% and 43% and 36%
same,DAT RO %,"[2]; 30 mg once a day, day 14, 24 h post last dose",26% and 23% and 43%
same,DAT RO %,"[2]; 45 mg once a day (30 mg for 3 days first), day 10, 4 h post dose",42% and 44% and 48%
same,DAT RO %,"[2]; 45 mg once a day (30 mg for 3 days first), day 14, 24 h post last dose",36% and 41% and 43%
same,DAT RO %,"[2]; 60 mg once a day (30 mg for 3 days first), day 10 (subject 77: day 11), 4 h post dose",60% and 59%
same,DAT RO %,"[2]; 60 mg once a day (30 mg for 3 days first), day 14, 24 h post last dose",48% and 49%
same,DAT occupancy,[2]; following multiple doses of 60 mg,up to 60%
same,concentration at 4 h,"[3]; 3 mg, SERT cohort, 3 mg once a day, day 10, 4 h post dose",0.068 µg/mL
same,concentration at 24 h,"[3]; 3 mg, SERT cohort, 3 mg once a day",0.052 µg/mL
same,concentration at 4 h,"[3]; 10 mg, DAT cohort, 10 mg once a day, day 10, 4 h post dose",0.204 µg/mL
same,concentration at 24 h,"[3]; 10 mg, DAT cohort, 10 mg once a day",0.141 µg/mL
same,concentration at 4 h,"[3]; 10 mg, SERT cohort, 10 mg once a day, day 10, 4 h post dose",0.201 µg/mL
same,concentration at 24 h,"[3]; 10 mg, SERT cohort, 10 mg once a day",0.127 µg/mL
same,concentration at 4 h,"[3]; 30 mg, SERT cohort, 30 mg once a day, day 10, 4 h post dose",0.691 µg/mL
same,concentration at 24 h,"[3]; 30 mg, SERT cohort, 30 mg once a day",0.668 µg/mL
same,concentration at 4 h,"[3]; 45 mg, DAT cohort, 45 mg once a day (30 mg for 3 days first), day 10, 4 h post dose",0.809 µg/mL
same,concentration at 24 h,"[3]; 45 mg, DAT cohort, 45 mg once a day (30 mg for 3 days first)",0.647 µg/mL
same,concentration at 4 h,"[3]; 45 mg, SERT cohort, 45 mg once a day (30 mg for 3 days first), day 10, 4 h post dose",1.16 µg/mL
same,concentration at 24 h,"[3]; 45 mg, SERT cohort, 45 mg once a day (30 mg for 3 days first)",0.94 µg/mL
same,concentration at 4 h,"[3]; 60 mg, DAT cohort, 60 mg once a day (30 mg for 3 days first), day 10 (subject 77: day 11), 4 h post dose",1.34 µg/mL
same,concentration at 24 h,"[3]; 60 mg, DAT cohort, 60 mg once a day (30 mg for 3 days first)",0.92 µg/mL
same,Formula I plasma concentration,"[4]; 3 mg daily, male, day 14, draw at about 23-24 h (Ctrough)",42 ng/mL
same,Cmax,"[4]; female, human, plasma, oral, 45 mg, 45 mg daily, day 14, draw flagged Cmax (1-3 h)",1.68 µg/mL
same,concentration at 0 h,"[4]; female, human, plasma, oral, 45 mg, 45 mg daily, female, read-out: Formula I plasma concentration",0.997 µg/mL
same,concentration at 24 h,"[4]; female, human, plasma, oral, 45 mg, 45 mg daily, female, day 14, draw at about 24 h (Ctrough), read-out: Formula I plasma concentration",0.901 µg/mL
same,AUC,"[4]; female, human, plasma, oral, 45 mg, 45 mg daily, female, day 14, printed in the 24 h draw line",10.1 µg·h/mL
same,concentration at 0 h,"[4]; male, human, plasma, oral, 3 mg, 3 mg daily, male, read-out: Formula I plasma concentration",0.042 µg/mL
same,Cmax,"[4]; male, human, plasma, oral, 3 mg, 3 mg daily, male, day 14, draw flagged Cmax (1-3 h)",0.066 µg/mL
same,AUC,"[4]; male, human, plasma, oral, 3 mg, 3 mg daily, male, day 14, printed in the 23-24 h draw line",0.439 µg·h/mL
same,Cmax,"[4]; male, human, plasma, oral, 10 mg, 10 mg daily, day 14, draw flagged Cmax (1-3 h)",0.218 µg/mL
same,concentration at 0 h,"[4]; male, human, plasma, oral, 10 mg, 10 mg daily, male, read-out: Formula I plasma concentration",0.125 µg/mL
same,AUC,"[4]; male, human, plasma, oral, 10 mg, 10 mg daily, male, day 14, printed in the 23-24 h draw line",1.26 µg·h/mL
same,Cmax,"[4]; male, human, plasma, oral, 45 mg, 45 mg daily, day 14, draw flagged Cmax (1-2 h)",1.15 µg/mL
same,concentration at 0 h,"[4]; male, human, plasma, oral, 45 mg, 45 mg daily, male, read-out: Formula I plasma concentration",0.635 µg/mL
same,concentration at 23 h,"[4]; male, human, plasma, oral, 45 mg, 45 mg daily, male, day 14, draw at 23 h (Ctrough), read-out: Formula I plasma concentration",0.672 µg/mL
same,AUC,"[4]; male, human, plasma, oral, 45 mg, 45 mg daily, male, day 14, printed in the 23 h draw line",6.28 µg·h/mL
same,stable in human EDTA plasma,[5]; freeze-thaw,at least 3 freeze-thaw cycles
same,stable in human EDTA plasma,[5]; room temperature,at least 24 h
same,stable in human EDTA plasma,[5]; −20° C.,at least 14 days
same,inhibition at 0.01 µM,[6],47%
